Data as given in patent US7381841B2, “Pentafluorosulfanylphenyl-substituted benzoylguanidines, processes for their preparation, their use as medicament or diagnostic aid, and medicament comprising them” (Sanofi-Aventis Deutschland GmbH, priority 2003, dated 2008).

What was measured:
human NHE-1 = biological target: T1, human NHE-1 (Homo sapiens, UniProt P19634); experiment: NHE-1 inhibition, FLIPR assay measuring recovery of pHi in transfected cell lines; type: cell-based; conditions: pHi recovery in transfected LAP-1 cell lines expressing human NHE-1, read-out: NHE1 inhibition IC50
T1 construct: expressed in transfected cells; host or cells: LAP-1 (parental cell line without endogenous NHE activity), G418-selected transfectants
T1 sequence (P19634 whole entry): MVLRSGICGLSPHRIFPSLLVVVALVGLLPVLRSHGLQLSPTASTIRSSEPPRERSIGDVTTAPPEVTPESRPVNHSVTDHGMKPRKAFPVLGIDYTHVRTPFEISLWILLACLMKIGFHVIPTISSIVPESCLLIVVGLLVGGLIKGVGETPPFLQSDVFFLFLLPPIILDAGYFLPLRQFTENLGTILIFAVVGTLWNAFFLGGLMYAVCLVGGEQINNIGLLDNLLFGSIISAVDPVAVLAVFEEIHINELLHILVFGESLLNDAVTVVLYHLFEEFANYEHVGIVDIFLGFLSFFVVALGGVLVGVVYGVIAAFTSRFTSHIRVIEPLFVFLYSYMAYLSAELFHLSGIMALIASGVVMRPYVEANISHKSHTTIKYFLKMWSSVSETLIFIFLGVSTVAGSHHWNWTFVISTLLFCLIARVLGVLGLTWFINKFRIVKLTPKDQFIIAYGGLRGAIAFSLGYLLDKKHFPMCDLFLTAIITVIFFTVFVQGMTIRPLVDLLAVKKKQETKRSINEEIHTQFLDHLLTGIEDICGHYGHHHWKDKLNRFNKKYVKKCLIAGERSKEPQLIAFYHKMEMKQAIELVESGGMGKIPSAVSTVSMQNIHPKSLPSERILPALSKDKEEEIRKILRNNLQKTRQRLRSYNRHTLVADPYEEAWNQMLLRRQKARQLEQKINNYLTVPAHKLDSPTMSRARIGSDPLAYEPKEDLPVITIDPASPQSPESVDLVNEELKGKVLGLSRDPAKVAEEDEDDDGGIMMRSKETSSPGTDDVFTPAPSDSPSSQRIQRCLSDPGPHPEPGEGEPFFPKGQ
Method: The NHE-1 inhibition IC50 was determined in an FLIPR assay by measurement of the recovery in pHi in transfected cell lines which express human NHE-1.
The assay was carried out in an FLIPR (fluorescent imaging plate reader) with black-walled 96-well microtiter plates with clear bases.
The growth medium for the transfected cells (Iscove+10% fetal calf serum) additionally contained G418 as selection antibiotic in order to ensure the presence of the transfected sequences.
The actual assay started with the removal of the growth medium and addition of 100 μl of loading buffer per well (5 μM BCECF-AM [2′,7′-bis(carboxyethyl)-5- (and -6-)carboxyfluorescein, acetoxymethyl ester] in 20 mM NH4Cl, 115 mM choline chloride, 1 mM MgCI2, 1 mM CaCI2, 5 mM KCI, 20 mM HEPES, 5 mM glucose; pH 7.4 [adjusted with KOH]). The cells were then incubated at 37° C. for 20 minutes. This incubation led to loading of the cells with the fluorescent dye whose fluorescence intensity depends on pHi, and with NH4Cl which makes the cells slightly alkaline. The nonfluorescent dye precursor BCECF-AM is, as ester, membrane-permeable. The actual dye BCECF is not membrane-permeable but is liberated inside cells by esterases.
After this incubation for 20 minutes, the loading buffer which contained NH4Cl and free BCECF-AM was removed by washing three times in a cell washer (Tecan Columbus) with in each case 400 μl of washing buffer (133.8 mM choline chloride, 4.7 mM KCI, 1.25 mM MgCI2, 1.25 mM CaCI2, 0.97 mM K2HPO4, 0.23 mM KH2PO4, 5 mM HEPES, 5 mM glucose; pH 7.4 [adjusted with KOH]). The residual volume remaining in the wells was 90 μl (50-125 μl possible). This washing step removed the free BCECF-AM and resulted, as a consequence of the removal of the external NH4^+ ions, in intracellular acidification (˜pHi 6.3-6.4).
This may eventually lead to cell death if it persists long enough.
It was important at this point that the washing buffer was sodium-free (<1 mM) because extracellular sodium ions would lead to an instantaneous recovery of the pHi through the activity of the cloned NHE isoforms.
It was likewise important for all the buffers used (loading buffer, washing buffer, recovery buffer) not to contain any HCO3^− ions, because the presence of bicarbonate would lead to activation of interfering bicarbonate-dependent pHi regulatory systems present in the parental LAP-1 cell line.
The microtiter plates with the acidified cells were then (up to 20 minutes after the acidification) transferred to the FLIPR. In the FLIPR, the intracellular fluorescent dye was excited by light with a wavelength of 488 nm generated by an argon laser, and the measured parameters (laser power, illumination time and aperture of the CCD camera incorporated in the FLIPR) were chosen so that the average fluorescence signal per well was between 30 000 and 35 000 relative fluorescence units.
The actual measurement in the FLIPR started with a photograph being taken by the CCD camera every two seconds under software control. After ten seconds, the recovery of the intracellular pH was initiated by adding 90 μl of recovery buffer (133.8 mM NaCl, 4.7 mM KCI, 1.25 mM MgCI2, 1.25 mM CaCI2, 0.97 mM K2HPO4, 0.23 mM KH2PO4, 10 mM HEPES, 5 mM glucose; pH 7.4 [adjusted with NaOH]) by means of the 96-well pipettor incorporated in the FLIPR.
Positive control wells (100% NHE activity) were those to which pure recovery buffer was added, while negative controls (0% NHE activity) received washing buffer. Recovery buffer with twice the concentration of test substance was added to all the other wells. Measurement in the FLIPR terminated after 60 measurements (two minutes).
The raw data are exported into the ActivityBase program. This program firstly calculates the NHE activities for each tested substance concentration and, from these, the IC50 values for the substances. […]

[1] = In vivo pharmacokinetics, profiling with the "n in one method"; conditions: iv; fasting male beagle dog, single i.v. bolus into jugular vein, about 1 mg/kg of each substance, given together, plasma; read-out: Half-life t½ (converted)
Method: In vivo pharmacokinetics—profiling with the “n in one method”
The exposure data and the half-life were determined as characteristic follows:
Two NHE-1 inhibiotors of the invention (example 1 and example 9) and a known NHE-1 reference subtance (cariporide)
[drawing 36] where dissolved in the slightly acidic aqueous medium (water, pH 4, adjusted with 1 M hydrochloric acid). The concentration of the aqueous formulation prepared in this way was about 1.5 mg of each substance per 1 g of solution. 10 ml of this formulation were administered once as bolus by means of a catheter into the jugular vein of a fasting male beagle dog (dose about 1 mg of each administered substance per kg of the dog's body weight). Blood samples were obtained by means of a second catheter after 5 min, 15 min, 30 min, 1 h, 2 h, 4 h, 8 h and 24 h, and heparinized plasma was prepared by centrifugation at 1000 G in appropriate plasma tubes.
The plasma samples were worked up and quantified by MS/MS after an HPLC separation. Simultaneous determination of a plurality of substances was possible with this method owing to its high specificity. The half-lives could be calculated using the WinNonlin computer program from the concentration-time plots (see FIG. 1) and compared with the half-life of the known NHE-1 reference substance. Since the various substances were measured in the same animal at the same time, the result was an accurate comparison of the compounds, and a ranking of the half-lives was possible.

SMILES	IC50 (human NHE-1)	melting point	half-life [1]
Cc1cc(Nc2ccc(S(F)(F)(F)(F)F)cc2)c(S(C)(=O)=O)cc1C(=O)N=C(N)N [Example 6, N-[5-Methanesulfonyl-2-methyl-4-(4-pentafluorosulfanylphenyl-amino)benzoyl]guanidine]	27.1 nM		
Cc1cc(-c2cccc(S(F)(F)(F)(F)F)c2)c(S(C)(=O)=O)cc1C(=O)N=C(N)N [Example 10, N-(2-Methanesulfonyl-5-methyl-3′-pentafluorosulfanylbiphenyl-4-carbonyl)guanidine]	38.8 nM	169 to 175 °C	
Cc1cc(S(=O)(=O)c2ccc(S(F)(F)(F)(F)F)cc2)c(S(C)(=O)=O)cc1C(=O)N=C(N)N [Example 4, N-[5-Methanesulfonyl-2-methyl-4-(4-pentafluorosulfanylphenylsulfonyl)-benzoyl]guanidine]	4670 nM		
Cc1cc(N(C)c2cccc(S(F)(F)(F)(F)F)c2)c(S(C)(=O)=O)cc1C(=O)N=C(N)N [Example 7, N-{5-Methanesulfonyl-2-methyl-4-[methyl-(3-pentafluorosulfanylphenyl)-amino]benzoyl}guanidine]	14.5 nM		
Cc1cc(Nc2cccc(S(F)(F)(F)(F)F)c2)c(S(C)(=O)=O)cc1C(=O)N=C(N)N [Example 5, N-[5-Methanesulfonyl-2-methyl-4-(3-pentafluorosulfanylphenylamino)-benzoyl]guanidine]	6.4 nM		
Cc1cc(-c2ccc(S(F)(F)(F)(F)F)cc2C)c(S(C)(=O)=O)cc1C(=O)N=C(N)N [Example 11, N-(2-Methanesulfonyl-5,2′-dimethyl-4′-pentafluorosulfanylbiphenyl-4-carbonyl)guanidine]	81.5 nM		
CC(C)c1ccc(C(=O)N=C(N)N)cc1S(C)(=O)=O.CS(=O)(=O)O [cariporide, reference compound]			4.1 h

The next lines start with the values.

IC50 (human NHE-1)	melting point	half-life [1]	SMILES
1.9 nM			Cc1cc(Oc2ccc(S(F)(F)(F)(F)F)cc2)c(S(C)(=O)=O)cc1C(=O)N=C(N)N [Example 2, N-[5-Methanesulfonyl-2-methyl-4-(4-pentafluorosulfanylphenoxy)-benzoyl]guanidine]
4.7 nM			Cc1cc(Sc2ccc(S(F)(F)(F)(F)F)cc2)c(S(C)(=O)=O)cc1C(=O)N=C(N)N [Example 3, N-[5-Methanesulfonyl-2-methyl-4-(4-pentafluorosulfanylphenylsulfanyl)benzoyl]-guanidine]
3.7 nM			Cc1cc(N(C)c2ccc(S(F)(F)(F)(F)F)cc2)c(S(C)(=O)=O)cc1C(=O)N=C(N)N [Example 8, N-{5-Methanesulfonyl-2-methyl-4-[methyl-(4-pentafluorosulfanyl-phenyl)amino]benzoyl}guanidine]
2.1 nM	238 to 240 °C	39.9 h	Cc1cc(-c2ccc(S(F)(F)(F)(F)F)cc2)c(S(C)(=O)=O)cc1C(=O)N=C(N)N [Example 9, N-(2-Methanesulfonyl-5-methyl-4′-pentafluorosulfanylbiphenyl-4-carbonyl)guanidine]
3.9 nM	166 to 168 °C	20.2 h	Cc1cc(Oc2cccc(S(F)(F)(F)(F)F)c2)c(S(C)(=O)=O)cc1C(=O)N=C(N)N [Example 1, N-[5-Methanesulfonyl-2-methyl-4-(3-pentafluorosulfanylphenoxy)-benzoyl]guanidine]
